The values below come from patent publication US9006216B2, “Biocidal aldehyde composition for oil and gas extraction” (priority 2009, dated 2015).

For test [1] the following is noted: 20-22 degrees C; high level disinfectant; cited from earlier work.
Test [2] has as its system Pseudomonas aeruginosa. The conditions noted are these: cited from earlier work.
The test system of another test is mycobacterial strains. The conditions noted are these: cited from earlier work.
Test [3] deals with Pseudomonas aeruginosa. Put plainly: Chlorine dioxide and TTPC versus Pseudomonas aeruginosa, log reduction. Format: cell-based. The following applies: ClO2 of 10 ppm alone; 10^5 ml; 30 min exposure. The procedure:
A test with chlorine dioxide (ClO2) and TTPC versus Pseudomonas aeruginosa was performed at 10^5 ml with ClO2 of 10 ppm. This alone gave a 1 log reduction in 30 min exposure. TTPC alone at 50 ppm gave a 2 log reduction. The combination of ClO2 and TTPC of 5 ppm and 10 ppm gave a 5 log reduction in 30 min.

Test [4] has as its system acid-producing bacteria (APB). The test is described as follows: Effective kill time of acid-producing bacteria. It is filed as cell-based. The protocol: When TTPC was added to the core Glutaraldehyde or OPA as a substitute for dual chain quaternary ammonium the effective kill time was twice as fast (2×) based upon log reduction. Similarly, the TTPC reduced the effective kill time of acid-producing bacteria (APB) by almost 50%. Although the kill speed of TTPC alone was 20% slower than the glut/quat formula of copending U.S. patent application Ser. No. 12/584,650, when TTPC is combined with glutaraldehyde as a substitute for dual chain quaternary ammonium the kill time increased to four times 4× faster, evidencing the synergism of the present combination.

A further test relates to aerobic organisms. Put plainly: Killing of aerobic organisms in oil frac water (5 log reduction). The conditions noted are these: based upon a 5 log reduction in oil frac water. Format: cell-based. An excerpt: (§1) As such there is actually a slight increase in planktonic microbes which are more susceptible to biocide/TTPC effects. Individual biocides affect the physiology of the cell quite differently. […] This is an example of enhanced quantum complementarity. The importance of the environmental parameter cannot be underestimated based upon the foregoing results. TTPC has a similar margin of exposure as the quats for oil field imputability with friction reducers for killing of aerobic organisms. […] The minimum inhibitory concentration (MIC) for the TTPC usage is 50-500 ppm. Therefore it is safe regarding corrosiveness, an important facet in well treatment. […] The faster cidal action is due basically to the chemistry difference between amine quats and phosphonium salts. The ammonium quats have longer alkyl chains. Instead of amine the difference is a phosphonium ion but also importantly is the alkyl chain length. It has been determined that there is an optimal length for anti-bacterial effectiveness. It was dependent upon chain length and attachment moieties. […] Usually the longer chain was better but not in these cases. […] TTPC did. There are great differences between Gram + and Gram − bacteria in their cell walls. […] The Gram − wall is complicated. It has in addition to the wall of G+ an outer membrane of lipopolysaccharides and phospholipids that protect the cell.

In test [5] the test system is sulfur reducing bacteria (SRB). Put plainly: Efficacy in oil/gas fields on sulfur reducing bacteria. Format: cell-based.
Source text: as §1

Another test relates to biofilm. The test is described as follows: Biofilm removability. The following applies: secondary oil and gas recovery.
Source text: as §1

`O=Cc1ccccc1C=O` [OPA, ortho-phthalaldehyde]: in test [1], the disinfection time result was “twelve”. In addition, the “bactericidal activity against Pseudomonas aeruginosa” value in the test with Pseudomonas aeruginosa [2] is reported as “good”. In the test on mycobacterial strains, the “bactericidal activity against mycobacterial strains” value was “limited activity”.
Turning to `[O][Cl+][O-]` [ClO2, chlorine dioxide], the log reduction in the test on Pseudomonas aeruginosa [3] worked out at 1 log.
Regarding `CCCCCCCCCCCCCC[P+](CCCC)(CCCC)CCCC.[Cl-]` [TTPC, tributyl tetradecyl phosphonium chloride], the “reduction of effective kill time of acid-producing bacteria (APB)” value in test [4] is around 50%. For the same compound, the “effectiveness relative to the original glut/quat formula” value in the test with aerobic organisms is given as “twice as effective”. Moreover, the “efficacy on sulfur reducing bacteria (SRB)” value in test [5] is listed as “almost equally effective”. In the test on biofilm, the “biofilm removability compared to quaternary ammonium” value is reported as “superior biofilm removability”.
